Measured values from patent publication US20090239841A1, “Diaryl Ureas as CB1 Antagonists” (priority 2004, published 2009).

What follows are molecules tested against T1, hCB1 (Homo sapiens, UniProt P21554) (assay: Agonist-induced GTP binding (GTPγ35S) assay at CB1, Example 8). Conditions: Table II; IC50 at CB1, GTP binding with 1 nM CP55,940; read-out: IC50.
T1 construct: made in house; host or cells: Sf9 insect cells (baculovirus), P2 membranes
T1 sequence (P21554 whole entry): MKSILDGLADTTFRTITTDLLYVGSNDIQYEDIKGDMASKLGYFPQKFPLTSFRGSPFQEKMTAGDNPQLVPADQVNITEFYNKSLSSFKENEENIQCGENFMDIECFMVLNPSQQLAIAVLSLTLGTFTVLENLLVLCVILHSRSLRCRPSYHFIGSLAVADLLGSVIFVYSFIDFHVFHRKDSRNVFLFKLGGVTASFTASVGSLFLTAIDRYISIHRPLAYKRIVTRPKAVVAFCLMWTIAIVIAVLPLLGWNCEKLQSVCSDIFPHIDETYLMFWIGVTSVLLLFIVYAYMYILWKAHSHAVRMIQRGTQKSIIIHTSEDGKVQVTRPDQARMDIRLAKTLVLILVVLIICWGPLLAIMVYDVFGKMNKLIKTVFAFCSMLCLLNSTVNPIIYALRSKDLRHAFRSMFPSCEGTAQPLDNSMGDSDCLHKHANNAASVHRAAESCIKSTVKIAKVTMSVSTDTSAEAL
Type: biochemical
From the text: As noted above, compounds provided herein are CB1 antagonists. Certain such compounds are non-competitive CB1 antagonists. In addition, or alternatively, certain compounds provided herein display CB1 specificity. CB1 antagonist activity may be confirmed using an agonist-induced GTP binding assay, such as the assay described in Example 8. Such assays employ a CB1-containing cell membrane preparation (e.g., a preparation of membranes of insect cells that recombinantly express CB1) to determine the effect of a test compound on CB1 agonist-induced GTP binding to CB1. Briefly, a first cell membrane preparation comprising CB1 is contacted with: (i) labeled GTP; (ii) a CB1 agonist; and (iii) a test compound to yield a test membrane preparation. Simultaneously, or in either order, a second cell membrane preparation comprising CB1 is contacted with: (i) labeled GTP; and (ii) a CB1 agonist to yield a control membrane preparation. The labeled GTP is preferably GTPγ^35S; a representative CB1 agonist is CP55,940. Such contact is performed under conditions that are suitable for GTP binding to CB1, such as the conditions described in Example 8. The concentrations of labeled GTP and CB1 agonist used are generally concentrations that are sufficient to result in a detectable increase in the amount of labeled GTP bound to the membrane preparation in the presence of CB1 agonist. Such concentrations may be determined by routine experimentation; representative suitable concentrations are provided in Example 8. Generally, a range of test compound concentrations is used (e.g., ranging from 10^−10M to 10^−5M).
After sufficient contact (e.g., incubation) to allow GTP binding to the membrane preparations, a signal that corresponds to (represents) the amount of bound, labeled GTP is detected (typically, unbound labeled GTP is first removed via a washing step). In other words, simultaneously or in either order: (i) a test signal that represents an amount of bound, labeled GTP in the test membrane preparation is detected; and (ii) a control signal that represents an amount of bound, labeled GTP in the control membrane preparation is detected. The nature of the signal detected is determined by the type of label used. For example, if the GTP is radioactively labeled, the signal detected is radioactive decay (e.g., via liquid scintillation spectrometry). The CB1 antagonist activity of the test compound is then determined by comparing the test signal with the control signal.
This assay can also be used to detect partial agonism mediated by antagonist compounds. A compound being analyzed in this assay is referred to herein as a “test compound.” Agonist-stimulated GTP binding activity is measured as follows: Four independent baculoviral stocks (one directing the expression of hCB1 and three directing the expression of each of the three subunits of a heterotrimeric G-protein) are used to infect a culture of Sf9 cells as described in Example 5.
Agonist-stimulated GTP binding on purified membranes (as described in Example 6) is initially assessed using the cannabinoid agonist CP55,940 to ascertain that the receptor/G-protein-alpha-beta-gamma combination(s) yield a functional response as measured by GTP binding.
P2 membranes are resuspended by Dounce homogenization (tight pestle) in GTP binding assay buffer (50 mM Tris pH 7.4, 120 mM NaCl, 5 mM MgCl2, 2 mM EGTA, 0.1% BSA, 0.1 mM bacitracin, 10 KIU/mL aprotinin, 5 μM GDP) and added to reaction tubes at a concentration of 10 μg protein/reaction tube. After adding increasing doses of the agonist CP55,940 at concentrations ranging from 10^−12 M to 10^−6 M, reactions are initiated by the addition of […] GTPγ^35S. In competition experiments, non-radiolabeled test compounds are added to separate assays at concentrations ranging from 10^−10 M to 10^−5 M along with 1 nM CP55,940 to yield a final volume of 0.25 mL. […]
In the case of O=C(Nc1ccc(OC(F)(F)F)cc1)Nc1cccc(OCCO)c1 [Compound 101, N-[3-(2-hydroxyethoxy)phenyl]-N′-[4-(trifluoromethoxy)phenyl]urea], the IC50 is reported as < 2 µM.
In the case of O=C(Nc1ccc(COc2ccccc2)cc1)Nc1ccc(OC(F)F)cc1 [Compound 102, N-[4-(dif1uoromethoxy)phenyl]-N′-[4-(phenoxymethyl)phenyl]urea], the IC50 is reported as < 2 µM.
O=C(Nc1ccc(OC(F)F)cc1)Nc1cccc(OC(F)F)c1 [Compound 103, N-[3-(difluoromethoxy)phenyl]-N′-[4-(difluoromethoxy)phenyl]urea] was tested, and the IC50 was < 2 µM.
For O=C(Nc1ccc(OC(F)F)cc1)Nc1ccc(N2CCCC2)cc1 [Compound 104, N-[4-(difluoromethoxy)phenyl]-N′-(4-pyrrolidin-1-ylphenyl)urea], the IC50 was < 2 µM.
For O=C(Nc1ccc(OC(F)F)cc1)Nc1ccc(N2CCCCC2)cc1 [Compound 105, N-[4-(difluoromethoxy)phenyl]-N′-(4-piperidin-1-ylphenyl)urea], the IC50 was < 2 µM.
O=C(Nc1ccc(OC(F)F)cc1)Nc1cc(C2CC2)n[nH]1 [Compound 106, N-(3-cyclopropyl-1H-pyrazol-5-yl)-N′-[4-(difluoromethoxy)phenyl]urea] was tested, and the IC50 was < 2 µM.
With O=C(Nc1ccc(OC(F)F)cc1)Nc1cc(-c2ccccc2)n[nH]1 [Compound 107, N-[4-(difluoromethoxy)phenyl]-N′-(3-phenyl-1H-pyrazol-5-yl)urea] the IC50 was < 2 µM.
O=C(Nc1ccc(OC(F)F)cc1)Nc1cccc(Oc2ncccn2)c1 [Compound 108, N-[4-(difluoromethoxy)phenyl]-N′-[3-(pyrimidin-2-yloxy)phenyl]urea] was tested, and the IC50 was < 2 µM.
For CS(=O)(=O)N1CCc2cc(NC(=O)Nc3ccc(OC(F)F)cc3)ccc21 [Compound 109, N-[4-(difluoromethoxy)phenyl]-N′-[1-(methylsu1fonyl)-2,3-dihydro-1H-indol-5-yl]urea], the IC50 was < 2 µM.
For O=C(Nc1ccc(OC(F)F)cc1)Nc1ccc(S(=O)(=O)N2CCCCC2)cc1 [Compound 110, N-[4-(difluoromethoxy)phenyl]-N′-[4-(piperidin-1-ylsulfonyl)phenyl]urea], the IC50 was < 2 µM.
O=C(Nc1ccc(OC(F)F)cc1)Nc1ccc(S(=O)(=O)N2CCCC2)cc1 [Compound 111, N-[4-(difluoromethoxy)phenyl]-N′-[4-(pyrrolidin-1-ylsulfonyl)phenyl]urea] was tested, and the IC50 was < 2 µM.
With O=C(Nc1cccc(OC(F)F)c1)Nc1cccc(OC(F)F)c1 [Compound 112, N,N′-bis[3-(difluoromethoxy)phenyl]urea] the IC50 was < 2 µM.
In the case of COc1ccc(NC(=O)Nc2ccc(OC(F)F)cc2)cn1 [Compound 113, N-[4-(difluoromethoxy)phenyl]-N′-(6-methoxypyridin-3-yl)urea], the IC50 is reported as < 2 µM.
For O=C(Nc1ccc(OC(F)F)cc1)Nc1ccc(Br)nc1 [Compound 114, N-(6-bromopyridin-3-yl)-N′-[4-(difluoromethoxy)phenyl]urea], the IC50 was < 2 µM.
With Cc1noc(C)c1-c1cccc(NC(=O)Nc2ccc(OC(F)F)cc2)c1 [Compound 115, N-[4-(difluoromethoxy)phenyl]-N′-[3-(3,5-dimethylisoxazol-4-yl)phenyl]urea] the IC50 was < 2 µM.
Cc1n[nH]cc1-c1cccc(NC(=O)Nc2ccc(OC(F)F)cc2)c1 [Compound 116, N-[4-(difluoromethoxy)phenyl]-N′-[3-(3-methyl-1H-pyrazol-4-yl)phenyl]urea] was tested, and the IC50 was < 2 µM.
With Cc1n[nH]c(C)c1-c1cccc(NC(=O)Nc2ccc(OC(F)F)cc2)c1 [Compound 117, N-[4-(difluoromethoxy)phenyl]-N′-[3-(3,5-dimethyl-1H-pyrazol-4-yl)phenyl]urea] the IC50 was < 2 µM.
COc1nc(-c2cccc(NC(=O)Nc3ccc(OC(F)F)cc3)c2)ncc1C(F)(F)F [Compound 118, N-[4-(difluoromethoxy)phenyl]-N′-{3-[4-methoxy-5-(trifluoromethyl)pyrimidin-2-yl]phenyl}urea] was tested, and the IC50 was < 2 µM.
COc1ncc(C(F)(F)F)c(-c2cccc(NC(=O)Nc3ccc(OC(F)F)cc3)c2)n1 [Compound 119, N-[4-(difluoromethoxy)phenyl]-N′-{3-[2-methoxy-5-(trifluoromethyl)pyrimidin-4-yl]phenyl}urea] was tested, and the IC50 was < 2 µM.
For Cc1cc(-c2cccc(NC(=O)Nc3ccc(OC(F)F)cc3)c2)cc(C)n1 [Compound 120, N-[4-(difluoromethoxy)phenyl]-N′-[3-(2,6-dimethylpyridin-4-yl)phenyl]urea], the IC50 was < 2 µM.
In the case of COc1ccc(C(F)(F)F)c(-c2cccc(NC(=O)Nc3ccc(OC(F)F)cc3)c2)n1 [Compound 121, N-[4-(difluoromethoxy)phenyl]-N′-{3-[6-methoxy-3-(trifluoromethyl)pyridin-2-yl]phenyl}urea], the IC50 is reported as < 2 µM.
For CCC(CC)Oc1ccc(-c2cccc(NC(=O)Nc3ccc(OC(F)F)cc3)c2)nc1NC [Compound 122, N-[4-(difluoromethoxy)phenyl]-N′-{3-[5-(1-ethylpropoxy)-6-(methylamino)pyridin-2-yl]phenyl}urea], the IC50 was < 2 µM.
COc1ccc(-c2cccc(NC(=O)Nc3ccc(OC(F)F)cc3)c2)nc1Cl [Compound 123, N-[3-(6-chloro-5-methoxypyridin-2-yl)phenyl]-N′-[4-(difluoromethoxy)phenyl]urea] was tested, and the IC50 was < 2 µM.
With CCc1cncc(-c2cccc(NC(=O)Nc3ccc(OC(F)F)cc3)c2)n1 [Compound 124, N-[4-(difluoromethoxy)phenyl]-N′-[3-(6-ethylpyrazin-2-yl)phenyl]urea] the IC50 was < 2 µM.
For CCc1ccc(NC(=O)Nc2cnc3ccccc3c2)cc1 [Compound 125, N-(4-ethylphenyl)-N′-quinolin-3-ylurea], the IC50 was < 2 µM.
For O=C(Nc1ccc(OC(F)F)cc1)Nc1cnc2ccccc2c1 [Compound 126, N-[4-(difluoromethoxy)phenyl]-N′-quinolin-3-ylurea], the IC50 was < 2 µM.
In the case of CCc1ccc(NC(=O)Nc2ccc3ncccc3c2)cc1 [Compound 128, N-(4-ethylphenyl)-N′-quinolin-6-ylurea], the IC50 is reported as < 2 µM.
In the case of O=C(Nc1ccc(OC(F)F)cc1)Nc1ccc2ncccc2c1 [Compound 129, N-[4-(difluoromethoxy)phenyl]-N′-quinolin-6-ylurea], the IC50 is reported as < 2 µM.
In the case of Cc1nc2ccc(NC(=O)Nc3ccc(OC(F)F)cc3)cc2o1 [Compound 130, N-[4-(difluoromethoxy)phenyl]-N′-(2-methyl-1,3-benzoxazol-6-yl)urea], the IC50 is reported as < 2 µM.
With CCOc1ccc(NC(=O)Nc2ccc(OC(F)F)cc2)cc1 [Compound 131, N-[4-(difluoromethoxy)phenyl]-N′-(4-ethoxyphenyl)urea] the IC50 was < 2 µM.
For COC(=O)c1ccc(NC(=O)Nc2ccc(OC(F)F)cc2)cc1 [Compound 132, methyl 4-[({[4-(difluoromethoxy)phenyl]amino}carbonyl)amino]benzoate], the IC50 was < 2 µM.
For O=C(Nc1ccc(OC(F)F)cc1)Nc1ccc2[nH]ncc2c1 [Compound 133], the IC50 was < 2 µM.
With COC(=O)c1ccc(NC(=O)Nc2ccc(OC(F)F)cc2)cc1OC [Compound 134, methyl 4-[({[4-(difluoromethoxy)phenyl]amino}carbonyl)amino]-2-methoxybenzoate] the IC50 was < 2 µM.
O=C(Nc1ccc(OC(F)F)cc1)Nc1ccc2c(c1)OC(=O)C2 [Compound 135, N-[4-(difluoromethoxy)phenyl]-N′-(2-oxo-2,3-dihydro-1-benzofuran-6-yl)urea] was tested, and the IC50 was < 2 µM.
